# According to article PMC12720098, “Prolintane analogs as hybrid monoamine transporter ligands: Structural determinants and species differences” (The Journal of Biological Chemistry, 2025):
# Like-named read-outs stand apart in the source and are kept apart here.
# What was measured:
# hSERT [1] = target: T1, hSERT (Homo sapiens, UniProt P31645); assay type: cell-based; conditions: for Mean of normalized currents elicited through hSERT by drug application: normalized to 10 µM 5-HT current
# T1 construct: expressed in transfected cells
# Protocol: (§1) One day prior to recording, either native HEK293 cells or HEK293 cells stably expressing monoamine transporters were seeded at low density onto PDL-coated 35 mm dishes. Patch-clamp experiments were conducted at a holding potential of −60 mV, with substrate-induced currents recorded at room temperature (20–24 °C) using an […] amplifier and pClamp 11.2 software (MDS Analytical Technologies). During recordings, cells were continuously superfused via a DAD-12 perfusion system and an 8-tube manifold (ALA Scientific Instruments), delivering an external solution composed of 140 mM NaCl, 2.5 mM CaCl2, 3 mM KCl, 2 mM MgCl2, 20 mM glucose, and 10 mM HEPES, with pH adjusted to 7.3 using NaOH. The intracellular pipette solution, designed to mimic physiological ionic conditions, contained 133 mM potassium gluconate, 5.9 mM NaCl, 1 mM CaCl2, 0.7 mM MgCl2, 10 mM HEPES, and 10 mM EGTA, with pH set to 7.2 using KOH. Currents were filtered at 1 kHz and digitized at 10 kHz via a Digidata 1550 digitizer (MDS Analytical Technologies), followed by analysis in Clampfit 10.2 (Molecular Devices). Substance-induced currents were normalized to the current elicited by a saturating concentration of 5-HT (10 μM) of the same cell. Holding currents were subtracted, and a 50 Hz digital Gaussian low-pass filter was applied to the traces for further analysis.
# hSERT [2] = target: T1, hSERT; design: method as in PMID 30397775; conditions: cited from earlier work
# humans = test system: humans; design: method as in PMID 4392006, PMID 7437258; conditions: dose range of 10–30 mg ref 15, 16; cited from earlier work
# native HEK293 cells = assay: Whole-cell patch-clamp control in native HEK293 cells without transfection; assay type: cell-based, human; conditions: prolintane 30 µM, 5-HT 10 µM (Fig. S3)
# Protocol: as §1
# rSERT = rSERT (Rattus norvegicus, UniProt P31652); assay type: cell-based; design: expressed in transfected cells; conditions: for Mean diff, rSERT efflux ± Mon (Šídák's multiple comparisons test): drug alone vs drug + monensin (Mon)
# Protocol: A day prior to the experiment, HEK293 cells stably expressing hSERT or rat SERT (rSERT) were seeded at a density of 100,000 cells per channel into 6 channel flow ibidi slides (Gräfelfing, Germany). On the day of the experiments, cells were preloaded with 0.1 μM [^3H]5-HT at 37 °C, 5% CO2 for 20 min. Subsequently, the slides were transferred to the superfusion apparatus ([59]). Cells were then washed with KHB for 15 min under a constant flow of 0.5 ml/min. Fractions were collected every 2 min in 8 ml vials containing 2 ml scintillation cocktail. Collection began with three baseline fractions using KHB, followed by four additional basal release fractions with KHB, either with or without 10 μM monensin. […] To assess residual radioactivity within the cells, they were lysed with 1% sodium dodecyl sulfate (SDS), and three final fractions were obtained. The measured tritiated substrate in each fraction was expressed as a percentage of the initial tritiated substrate present at the start of that fraction.
# Uptake inhibition data were evaluated by one-way ANOVA followed by Tukey's multiple comparisons test. Release data were analyzed using a two-way ANOVA (batch release) or a mixed-effects model with Geisser-Greenhouse correction (time-dependent traces) employing Šidák correction for comparing differences between compounds with or without the addition of monensin.
# mice = test system: mice; design: method as in PMID 34896117; conditions: moderate and high doses ref 2; cited from earlier work
# T1 sequence (P31645 whole entry): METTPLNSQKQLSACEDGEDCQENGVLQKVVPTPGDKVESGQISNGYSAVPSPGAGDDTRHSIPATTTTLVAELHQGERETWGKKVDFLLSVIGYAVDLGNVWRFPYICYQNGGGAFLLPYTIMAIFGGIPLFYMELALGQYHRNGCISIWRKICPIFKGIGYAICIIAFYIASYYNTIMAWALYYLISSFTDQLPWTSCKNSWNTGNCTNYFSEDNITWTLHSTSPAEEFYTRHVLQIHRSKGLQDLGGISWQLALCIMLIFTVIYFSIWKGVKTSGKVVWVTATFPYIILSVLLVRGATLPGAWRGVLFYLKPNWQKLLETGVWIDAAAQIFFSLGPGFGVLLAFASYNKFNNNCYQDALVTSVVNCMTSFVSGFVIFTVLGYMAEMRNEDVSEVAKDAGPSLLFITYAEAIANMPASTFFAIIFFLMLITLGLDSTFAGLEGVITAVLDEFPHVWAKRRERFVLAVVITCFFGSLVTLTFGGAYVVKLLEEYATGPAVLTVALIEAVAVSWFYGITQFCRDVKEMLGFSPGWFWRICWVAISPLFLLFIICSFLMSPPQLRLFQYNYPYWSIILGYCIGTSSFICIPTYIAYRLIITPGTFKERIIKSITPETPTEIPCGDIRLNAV
# Chain of rSERT (P31652 whole entry, the tested form may be a part): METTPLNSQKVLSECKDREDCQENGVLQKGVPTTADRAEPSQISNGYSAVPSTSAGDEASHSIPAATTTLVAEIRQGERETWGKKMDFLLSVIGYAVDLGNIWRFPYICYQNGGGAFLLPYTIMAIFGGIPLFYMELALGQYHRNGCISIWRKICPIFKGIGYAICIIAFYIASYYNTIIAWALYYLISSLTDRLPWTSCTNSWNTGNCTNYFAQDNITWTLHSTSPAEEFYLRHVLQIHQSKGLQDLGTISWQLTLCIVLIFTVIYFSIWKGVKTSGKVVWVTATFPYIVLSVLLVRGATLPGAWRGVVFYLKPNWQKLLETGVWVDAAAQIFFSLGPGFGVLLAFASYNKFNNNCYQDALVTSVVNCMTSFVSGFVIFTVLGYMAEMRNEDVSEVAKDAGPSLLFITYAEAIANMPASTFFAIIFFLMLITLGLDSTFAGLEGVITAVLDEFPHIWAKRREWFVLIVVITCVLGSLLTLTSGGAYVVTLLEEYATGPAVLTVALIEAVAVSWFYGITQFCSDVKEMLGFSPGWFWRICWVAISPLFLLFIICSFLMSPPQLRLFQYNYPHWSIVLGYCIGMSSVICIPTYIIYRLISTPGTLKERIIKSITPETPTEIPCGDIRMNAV
compound,measurement,setting,value
"CCCC(Cc1ccccc1F)N1CCCC1 (centres unmarked) [2-Fluoroprolintane, 1-[1-(2-fluorophenyl)pentan-2-yl]pyrrolidine]",Mean of normalized currents elicited through hSERT by drug application,hSERT [1],0.28
"CCCC(Cc1ccccc1C)N1CCCC1 (centres unmarked) [2-Methylprolintane, 1-[1-(2-methylphenyl)pentan-2-yl]pyrrolidine]",Mean of normalized currents elicited through hSERT by drug application,hSERT [1],0.386
"CCCC(Cc1cccc(F)c1)N1CCCC1 (centres unmarked) [3-Fluoroprolintane, 1-[1-(3-fluorophenyl)pentan-2-yl]pyrrolidine]",Mean of normalized currents elicited through hSERT by drug application,hSERT [1],0.306
"CCCC(Cc1cccc(C)c1)N1CCCC1 (centres unmarked) [3-Methylprolintane, 1-[1-(3-methylphenyl)pentan-2-yl]pyrrolidine]",Mean of normalized currents elicited through hSERT by drug application,hSERT [1],0.354
"CCCC(Cc1ccc(F)cc1)N1CCCC1 (centres unmarked) [4-Fluoroprolintane, 1-[1-(4-fluorophenyl)pentan-2-yl]pyrrolidine]",Mean of normalized currents elicited through hSERT by drug application,hSERT [1],0.3167
"CCCC(Cc1ccc(C)cc1)N1CCCC1 (centres unmarked) [4-Methylprolintane, 1-[1-(4-methylphenyl)pentan-2-yl]pyrrolidine]",Mean of normalized currents elicited through hSERT by drug application,hSERT [1],0.21
"CCCC(Cc1ccccc1)N1CCCC1 (centres unmarked) [Prolintane, 1-(1-phenylpentan-2-yl)pyrrolidine]",Mean of normalized currents elicited through hSERT by drug application,hSERT [1],0.2567
same,hSERT-mediated current,"hSERT [1]; prolintane 30 µM, after 5-HT washout (Fig. S2)",elicited an inward current
same,"effects at hSERT, fold weaker than at hDAT and hNET",hSERT [2],approximately 10 fold
same,clinical effects,humans,"dose-dependent psychostimulant effects, sympathomimetic effects and reduced total rapid eye movement (REM) sleep"
same,current in native HEK293 cells without transfection,native HEK293 cells,do not induce currents
same,current in native HEK293 cells without transfection,native HEK293 cells; listed as prolintane,no current could be recorded
same,"Mean diff, rSERT efflux ± Mon (Šídák's multiple comparisons test)",rSERT; Row 1 (time fraction),-0.3272
same,"Mean diff, rSERT efflux ± Mon (Šídák's multiple comparisons test)",rSERT; Row 2 (time fraction),-0.2896
same,"Mean diff, rSERT efflux ± Mon (Šídák's multiple comparisons test)",rSERT; Row 3 (time fraction),-0.1547
same,"Mean diff, rSERT efflux ± Mon (Šídák's multiple comparisons test)",rSERT; Row 4 (time fraction),-0.119
same,"Mean diff, rSERT efflux ± Mon (Šídák's multiple comparisons test)",rSERT; Row 5 (time fraction),-0.6706
same,"Mean diff, rSERT efflux ± Mon (Šídák's multiple comparisons test)",rSERT; Row 6 (time fraction),-0.9234
same,"Mean diff, rSERT efflux ± Mon (Šídák's multiple comparisons test)",rSERT; Row 7 (time fraction),-1.427
same,"Mean diff, rSERT efflux ± Mon (Šídák's multiple comparisons test)",rSERT; Row 8 (time fraction),-2.621
same,"Mean diff, rSERT efflux ± Mon (Šídák's multiple comparisons test)",rSERT; Row 9 (time fraction),-2.612
same,"Mean diff, rSERT efflux ± Mon (Šídák's multiple comparisons test)",rSERT; Row 10 (time fraction),-2.362
same,"Mean diff, rSERT efflux ± Mon (Šídák's multiple comparisons test)",rSERT; Row 11 (time fraction),-2.416
same,"Mean diff, rSERT efflux ± Mon (Šídák's multiple comparisons test)",rSERT; Row 12 (time fraction),-2.279
same,[3H]5-HT releasing profile in cells expressing rSERT,"rSERT; superfusion, HEK293 cells, with and without monensin",almost identical pseudo-efflux releasing profile
same,abuse-related behavioural effects,mice,rewarding and reinforcing effects
